According to article PMC8154258, “Multivalent Presentations of Glycomimetic Inhibitor of the Adhesion of Fungal Pathogen Candida albicans to Human Buccal Epithelial Cells” (Bioconjugate Chemistry, 2021):

Tested on: C. albicans biofilm formation
Test: Biofilm assay (crystal violet, 96-well plate)
Format: cell-based, Candida albicans
Experimental: C. albicans (MEN, serotype B, clinical isolate from a corneal infection) was maintained on sabouraud dextrose agar, and cultures were grow to the stationary phase ((1–2) × 10^8 cells/mL) overnight in YEPD broth (1% (w/v) yeast extract, 2% (w/v) bacteriological peptone, 2% (w/v) glucose) at 30 °C, and 200 rpm. Stationary phase yeast cells were harvested, washed with PBS, and resuspended at a density of 1 × 10^8 cells/mL in PBS.
C. albicans cells were washed twice with PBS and enumerated before being resuspended in RPMI to give a cell density of (2 × 10^7 cells/mL). Compounds were resuspended in PBS to give a concentration of 2 mg/mL. The compounds (250 μL) were mixed with RPMI (250 μL) in a 1:1 ratio to give a concentration of 1 mg/mL. PBS (250 μL) was mixed with RPMI (250 μL).
C. albicans cells (500 μL, 2 × 10^7 cells/mL) were incubated with compounds (1 mg/mL) in a 1:1 ratio to give a final cell density to concentration ratio of […]. The suspension was incubated for 3 h at rt and mixed by vortex every 20 min to prevent cells from falling out of solution. Cell suspension (100 μL) was added to wells of a 96-well flat bottom plate. The plate was incubated at 37 °C for 24 h. […] The plate was read at 550 nm in a 96-well plate reader. The percentage reduction in biofilm was calculated by dividing the absorbance value of the treated cells into that of the control.

O=C[C@H](O)[C@@H](O)[C@@H](O)[C@H](O)CO [D-galactose]
% Change in biofilm formation (Figure 4, relative to PBS control, compound 1 mg/mL mixed 1:1 with cells, 24 h at 37 °C, crystal violet, 550 nm, error: standard deviation): 114%
effect on biofilm formation (in words) (biofilm growing conditions, positive control): promoted the formation of the biofilm
